The text below walks through data of ChEMBL document CHEMBL1140678, “New triterpene glucosides, oligoporins A-C, from Oligoporus tephroleucus protect DNA from Fenton reaction” (Bioorg Med Chem Lett, 2007).

Molecules are shown by their SMILES.

The inhibition is the change of the read-out against control, counted positive when it falls. A low value points to a weak effect.

Experiment [1] relates to Escherichia coli. As to the kind of experiment: Inhibition of fenton reaction-induced pBR322 supercoiled DNA damage. It is filed as functional.
Experiment [2] deals with Escherichia coli. As to the kind of experiment: Inhibition of fenton reaction-induced pBR322 supercoiled DNA damage at 1 mM. The experiment is classed as functional.

Turning to `C/C(=C/CC[C@@H](C)[C@H]1CC[C@@]2(C)C3=CC[C@H]4C(C)(C)C(=O)CC[C@]4(C)C3=C[C@@H](O[C@@H]3O[C@H](CO)[C@@H](O)[C@H](O)[C@H]3O)[C@]12C)C(=O)O`, the Activity result in the experiment with Escherichia coli [1] was “Dose-dependent effect”.
Consider `C/C(=C/CC[C@@H](C)[C@H]1CC[C@@]2(C)C3=C(C[C@@H](O[C@@H]4O[C@H](CO)[C@@H](O)[C@H](O)[C@H]4O)[C@]12C)[C@@]1(C)CC[C@@H](O)C(C)(C)[C@@H]1CC3=O)C(=O)O`, for which the Activity result with Escherichia coli [1] was “Dose-dependent effect”. The same compound had an inhibition in the experiment on Escherichia coli [2] of 90%.
Regarding `C/C(=C/CC[C@@H](C)[C@H]1CC[C@@]2(C)C3=CC[C@H]4C(C)(C)[C@H](O)CC[C@]4(C)C3=C[C@@H](O[C@@H]3O[C@H](CO)[C@@H](O)[C@H](O)[C@H]3O)[C@]12C)C(=O)O`, in the experiment on Escherichia coli [1], the Activity result is “Dose-dependent effect”.
